In assay [1] the target is T1, full-length RORγt in Jurkat cells (Homo sapiens, UniProt P51449).
T1 construct: transcriptional activity of the full-length RORγt in Jurkat cells; host or cells: Jurkat cells (ATCC TIB-152)
T1 sequence (P51449 1-497 isoform P51449-2): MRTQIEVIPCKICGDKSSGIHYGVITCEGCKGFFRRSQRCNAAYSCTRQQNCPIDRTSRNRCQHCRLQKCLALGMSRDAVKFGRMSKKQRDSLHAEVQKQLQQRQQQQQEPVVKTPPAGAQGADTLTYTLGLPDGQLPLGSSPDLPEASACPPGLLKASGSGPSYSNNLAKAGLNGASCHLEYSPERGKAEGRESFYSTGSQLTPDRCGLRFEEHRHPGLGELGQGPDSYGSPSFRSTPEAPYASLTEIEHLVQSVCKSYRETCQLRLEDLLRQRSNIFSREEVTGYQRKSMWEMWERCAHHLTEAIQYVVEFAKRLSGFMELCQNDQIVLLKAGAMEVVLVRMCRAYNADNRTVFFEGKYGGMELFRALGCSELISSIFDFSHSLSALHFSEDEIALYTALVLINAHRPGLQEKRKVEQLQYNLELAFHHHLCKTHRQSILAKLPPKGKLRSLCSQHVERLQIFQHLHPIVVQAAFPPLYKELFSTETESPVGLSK
The assay can be described thus: RORγt 5×RORE Assay in Jurkat Cells (Assay 2). The format is cell-based. As to conditions: 5×RORE luciferase reporter. As to the method:
[formula] RORγt 5×RORE Assay in Jurkat Cells (Assay 2)
Compounds described herein were tested for RORγ inverse agonist activity in a cell-based, transcriptional activity assay. Secreted Nanoluc″ luciferase was used as a reporter for transcriptional activity of the full-length RORγt in Jurkat cells (ATCC, Cat. #TIB-152). A reporter plasmid was constructed by inserting 5 repeats of the ROR Response Element (RORE) […] (SEQ ID NO: 1) into a commercially available promoterless plasmid pNL1.3[secNluc] (Promega, Cat. #N1021) using KpnI and HindIII restriction sites. The expression plasmid for RORγt was purchased (Geneocopoeia, Cat. #EX-T6988-M02). Jurkat cells (30 million cells) were transfected with 11 μg of EX-T6988-MO2 and 26 μg of the reporter plasmid in OptiMEM® media using Lipofectamine LTX and Plus™ reagents (Life Technologies, Cat. #15338-100). After 5-6 hrs of incubation at 37° C./5% CO2, the cells were collected, resuspended in phenol-red free RPMI media containing 10% (v/v) delipidated FBS (Hyclone, Cat. #SH30855.03) and dispensed into 96-well clear bottom tissue culture plates (CoStar, Cat. #3603), at 80,000 cells per well. Tested compounds were added to the cells in the same media (final concentration of DMSO was 0.1% (v/v)), and the plates were incubated at 37° C./5% CO2 for 16-18 hrs. Luciferase activity in the conditioned supernatants was determined with NanoGlo® assay reagents (Promega, Cat. #N1130).
(A reporter such as luciferase makes a cellular process visible.)

The target in assay [2] is T2, recombinant RORγ Ligand Binding Domain (LBD) protein (Homo sapiens, UniProt P51449).
T2 construct: 6×His; GST
T2 sequence (P51449 269-508 limits assumed): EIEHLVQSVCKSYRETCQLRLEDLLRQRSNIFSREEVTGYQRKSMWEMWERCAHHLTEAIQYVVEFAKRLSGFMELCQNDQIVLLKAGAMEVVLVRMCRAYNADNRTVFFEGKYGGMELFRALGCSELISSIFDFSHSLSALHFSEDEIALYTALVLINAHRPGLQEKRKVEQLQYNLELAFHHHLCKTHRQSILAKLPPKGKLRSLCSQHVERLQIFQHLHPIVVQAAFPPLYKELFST
The assay can be described thus: Radio-Ligand RORγ Binding Assay (Assay 1). As to conditions: radio-ligand competition, RORγ LBD, read-out: Avg ROR Bind Ki. As to the method:
Radio-Ligand RORγ Binding Assay (Assay 1)
Compounds described herein were tested for ability to bind to RORγ in a cell-free competition assay with commercially available radio-ligand (RL), 25-hydroxy [26,27-^3H]-cholesterol (PerkinElmer, Cat. #NET674250UC), for a ligand binding site on a recombinant RORγ Ligand Binding Domain (LBD) protein expressed as a 6×His-Glutathione-S-Transferase (GST) fusion. The assay was performed in 96-well SPA plates (PerkinElmer, Cat. #1450-401) in 50 mM HEPES buffer, pH 7.4, containing 150 mM NaCl, 5 mM MgCl2, 10% (v/v) glycerol, 2 mM CHAPS, 0.5 mM 3-octylglucopyranoside and 5 mM DTT. Tested compounds were dissolved in DMSO, and semi-log (3.162×) serial dilutions of the compounds were prepared in the same solvent. Two μL of the DMSO solutions were mixed with 28 μL of 8.6 nM 25-hydroxy [26,27-^3H]-cholesterol and 50 μL of 24 nM RORγ LBD. The plate was shaken at 700 rpm for 20 min and incubated for 10 min at rt, after which 40 μL of poly-Lys YSi SPA beads (PerkinElmer, Cat. #RPNQ0010) were added to achieve 50 μg of the beads per well. The plate was incubated on an orbital shaker for 20 min and then for 10 min without agitation at rt. SPA signal for tritium beta radiation was registered on PerkinElmer Microbeta plate reader. […] The percent inhibition vs. concentration data were fit into a four-parameter model, and IC50 values were calculated from the fit as the concentrations corresponding to the inflection points on the dose-response curves. Inhibitory constants (Ki) were calculated using the following equation, where [RL] is the concentration in the assay and KD is a dissociation constant of 25-hydroxy [26,27-^3H]-cholesterol: […]

Where [3] appears, read: 25-hydroxy [26,27-3H]-cholesterol.
Where [4] appears, read: Table 20, read-out: Avg ROR γt/5x IC5.
[5] abbreviates: head without unit (Tables 15, 17), read-out: Avg ROR γt/5x IC50.
The mark [6] stands for this setting: head without unit (Tables 15, 17).

20 molecules from US11008340B2, “Modulators of ROR-gamma” (Vitae Pharmaceuticals, LLC, priority 2015, dated 2021) can be followed below.

Each structure is given as a SMILES string. Like-named read-outs stand apart in the source and are kept apart here.

One may read the Ki as a measure of affinity in units of concentration, obtained from inhibition or displacement. On to `CCS(=O)(=O)c1ccc([C@H](CO)NC(=O)c2ccc3c(OCC4CCN(CC(F)(F)F)CC4)nc(C)cc3c2)cc1` [Hy1A-19, (R)-N-(1-(4-(ethylsulfonyl)phenyl)-2-hydroxyethyl)-3-methyl-1-((1-(2,2,2-trifluoroethyl)piperidin-4-yl)methoxy)isoquinoline-6-carboxamide], for which the IC50 in assay [1] (read-out: Avg ROR γt/5x IC50) fell in the range of 100 to 1000 nM. Further, the Ki in assay [2] (setting [3]) was less than 100 nM.
Regarding `CCC1CN(c2ncc(C(F)(F)F)cn2)Cc2cc(C(=O)N[C@@H](CO)c3ccc(S(=O)(=O)CC)cc3)ccc21` (single isomer, unassigned) [Hy7-17.2], in assay [1] (setting [4]), the IC50 was more than 1000 nM. In addition, the Ki in assay [2] (setting [3]) is less than 100 nM.
Consider `CCS(=O)(=O)c1ccc([C@@H](CO)NC(=O)c2ccc3c(OC[C@H]4CC[C@H](C(F)(F)F)CC4)nc(C)cc3c2)cc1` [Hy1A-16, N-((S)-1-(4-(ethylsulfonyl)phenyl)-2-hydroxyethyl)-3-methyl-1-(((1r,4S)-4-(trifluoromethyl)cyclohexyl)methoxy)isoquinoline-6-carboxamide], for which, in assay [1] (read-out: Avg ROR γt/5x IC50), the IC50 was less than 100 nM. The Ki in assay [2] (setting [3]) is less than 100 nM.
For the molecule `CCS(=O)(=O)c1ccc([C@H](CO)NC(=O)c2ccc3c(OC[C@H]4CC[C@H](C(F)(F)F)CC4)nc(OC)cc3c2)cc1` [Hy1A-23, N-((R)-1-(4-(ethylsulfonyl)phenyl)-2-hydroxyethyl)-3-methoxy-1-(((1r,4R)-4-(trifluoromethyl)cyclohexyl)methoxy)isoquinoline-6-carboxamide], the IC50 in assay [1] (read-out: Avg ROR γt/5x IC50) was less than 100 nM. The Ki in assay [2] (setting [3]) is less than 100 nM.
`CC[C@@H]1CN(c2ncc(C(F)(F)F)cn2)Cc2cc(C(=O)N[C@@H](CO)c3ccc(S(=O)(=O)CC)cn3)ccc21` (single isomer, unassigned) [Hy7-18.1]: in assay [1] (setting [4]), the IC50 was less than 100 nM. In addition, the Ki in assay [2] (setting [3]) is less than 100 nM.
In the case of `CCOC(=O)c1cnc(N2Cc3cc(C(=O)NCc4ccc(S(=O)(=O)CC)cc4)ccc3[C@H](C(C)C)C2)nc1C(F)(F)F` (single isomer, unassigned) [Hy7-26.1], the IC50 in assay [1] (setting [4]) was less than 100 nM. In assay [2] (setting [3]), the inhibitory constant (Ki) was less than 100 nM.
With `CCS(=O)(=O)c1ccc(CNC(=O)c2cc3ccnc(OC[C@H]4CC[C@H](C(F)(F)F)CC4)c3n2C)cc1` [Hy4-1, N-(4-(ethylsulfonyl)benzyl)-1-methyl-7-(((1r,4r)-4-(trifluoromethyl)cyclohexyl)methoxy)-1H-pyrrolo[2,3-c]pyridine-2-carboxamide], the IC50 in assay [1] (setting [5]) was 100 to 1000 nM. In addition, the Ki in assay [2] (setting [6]) is less than 100 nM.
Regarding `CCS(=O)(=O)c1ccc(CNC(=O)c2ccc3c(c2)CN(c2ncc(-c4ccc(=O)n(C)c4)cn2)C[C@H]3C(C)C)cc1` (single isomer, unassigned) [Hy7-24.1], in assay [1] (setting [4]), the IC50 is less than 100 nM. Moreover, the Ki in assay [2] (setting [3]) was less than 100 nM.
For `CCS(=O)(=O)c1ccc(CNC(=O)c2ccc3c(c2)CCN(Cc2ncc(C)cn2)[C@H]3C(C)C)cc1` (single isomer, unassigned) [Hy2A-12.1], in assay [1] (read-out: Avg ROR γt/5x IC50), the IC50 was in the range of 100 to 1000 nM. In addition, the Ki in assay [2] (setting [3]) lay within 100 to 1000 nM.
On to `CCS(=O)(=O)c1ccc([C@H](CO)NC(=O)c2ccc3c(OCc4ccc(C(F)(F)F)cc4)nccc3c2)cc1` [Hy1A-7, (R)-N-(1-(4-(ethylsulfonyl)phenyl)-2-hydroxyethyl)-1-((4-(trifluoromethyl)benzyl)oxy)isoquinoline-6-carboxamide], for which the IC50 in assay [1] (read-out: Avg ROR γt/5x IC50) is 100 to 1000 nM. Besides, in assay [2] (setting [3]), the Ki was less than 100 nM.
`CCS(=O)(=O)c1ccc(CNC(=O)c2ccc3c(c2)CN(c2ncc(F)cn2)C[C@H]3C(C)C)cc1` (single isomer, unassigned) [Hy7-1.1]: in assay [1] (setting [4]), the IC50 is more than 1000 nM. Besides, in assay [2] (setting [3]), the Ki was less than 100 nM.
As to `CCS(=O)(=O)c1ccc(CNC(=O)c2ccc3c(OC[C@H]4CC[C@H](C(F)(F)F)CC4)nc(Cl)cc3c2)cc1` [Hy1A-9, 3-chloro-N-(4-(ethylsulfonyl)benzyl)-1-(((1r,4r)-4-(trifluoromethyl)cyclohexyl)methoxy)isoquinoline-6-carboxamide], in assay [1] (read-out: Avg ROR γt/5x IC50), the IC50 is less than 100 nM. In assay [2] (setting [3]), the Ki was less than 100 nM.
`CCS(=O)(=O)c1ccc([C@H](CO)NC(=O)c2ccc3c(OC[C@@H]4CC[C@@H](C(F)(F)F)OC4)nc(C)cc3c2)cc1` (single isomer, unassigned) [Hy1A-18.2]: the IC50 in assay [1] (read-out: Avg ROR γt/5x IC50) is less than 100 nM. Moreover, the Ki in assay [2] (setting [3]) is less than 100 nM.
With `CCS(=O)(=O)c1ccc([C@H](CO)NC(=O)c2ccc3c(OC[C@H]4CC[C@H](C(F)(F)F)CC4)nc(Cl)cc3c2)cc1` [Hy1A-11, 3-chloro-N-((R)-1-(4-(ethylsulfonyl)phenyl)-2-hydroxyethyl)-1-(((1r,4R)-4-(trifluoromethyl)cyclohexyl)methoxy)isoquinoline-6-carboxamide], the IC50 in assay [1] (read-out: Avg ROR γt/5x IC50) is less than 100 nM. For the same molecule, the Ki in assay [2] (setting [3]) was less than 100 nM.
On to `CCOC(=O)c1cnc(N2Cc3cc(C(=O)NCc4ccc(S(=O)(=O)CC)cc4)ccc3[C@@H](C(C)C)C2)nc1C(F)(F)F` (single isomer, unassigned) [Hy7-26.2], for which the IC50 in assay [1] (setting [4]) was in the range of 100 to 1000 nM. The Ki in assay [2] (setting [3]) is less than 100 nM.
In the case of `CCS(=O)(=O)c1ccc(CNC(=O)c2ccc3c(OC[C@H]4CC[C@H](C(F)(F)F)CC4)nccc3c2)cc1` [Hy1A-5, N-(4-(ethylsulfonyl)benzyl)-1-(((1r,4r)-4-(trifluoromethyl)cyclohexyl)methoxy)isoquinoline-6-carboxamide], in assay [1] (read-out: Avg ROR γt/5x IC50), the IC50 was 100 to 1000 nM. The Ki in assay [2] (setting [3]) was less than 100 nM.
For the molecule `CCS(=O)(=O)c1ccc(CNC(=O)c2ccc3c(c2)CN(c2ncc(C4CC4)cn2)C[C@@H]3C(C)C)cc1` (single isomer, unassigned) [Hy7-4.2], the IC50 in assay [1] (setting [4]) was more than 1000 nM. For the same molecule, the Ki in assay [2] (setting [3]) was less than 100 nM.
On to `CCS(=O)(=O)c1ccc([C@H](CO)NC(=O)c2cc3ccnc(OCc4ccc(C(F)(F)F)cc4)c3n2C)cc1` [Hy4-4, (R)-N-(1-(4-(ethylsulfonyl)phenyl)-2-hydroxyethyl)-1-methyl-7-((4-(trifluoromethyl)benzyl)oxy)-1H-pyrrolo[2,3-c]pyridine-2-carboxamide], for which the IC50 in assay [1] (setting [5]) was 100 to 1000 nM. Also, the Ki in assay [2] (setting [6]) was less than 100 nM.
For the molecule `CC[C@@H]1CN(c2ncc(-c3cccc(OC)n3)cn2)Cc2cc(C(=O)NCc3ccc(S(=O)(=O)CC)cc3)ccc21` (single isomer, unassigned) [Hy7-20.1], the IC50 in assay [1] (setting [4]) was less than 100 nM. Also, the Ki in assay [2] (setting [3]) is less than 100 nM.
For the molecule `CC[C@@H]1CN(c2ncc(C(F)(F)F)cn2)Cc2cc(C(=O)N[C@H](CO)c3ccc(S(=O)(=O)CC)cn3)ccc21` (single isomer, unassigned) [Hy7-18.2], the IC50 in assay [1] (setting [4]) is more than 1000 nM. In addition, the Ki in assay [2] (setting [3]) was less than 100 nM.
